Experimental data from paper PMC12326981, “Novel C5α-substituted carbapenems enhance Mycobacterium abscessus killing via selective target binding and reduced hydrolysis by BlaMab” (Antimicrobial Agents and Chemotherapy, 2025).
Read-outs that look alike come from different tables or passages of the source.

What was measured:
PBP B = PBP B (Mycobacteroides abscessus, UniProt B1MP31); test: Apparent inhibition constant (nitrocefin, Dixon plot); assay type: biochemical; conditions: PBP B
Protocol: (§1) Steady-state kinetic studies with JDB/NA-1-157 and JDB/NA-1-208 were performed using purified LDTs and PBPs, including LDT1–5, PBP-B, PBP-lipo, and D,D-carboxypeptidase. The assays were conducted on a BioTek Synergy2 multimode reader equipped with Gen5 software. To determine the Michaelis constant (Km^NCF) for each LDT and PBP, a wide range of NCF concentrations was tested, while the enzyme concentrations were fixed. Absorbance changes at 482 nm were monitored over 10 min. Steady-state kinetic parameters (Vmax and Km) were derived by fitting the experimental data to the Henri–Michaelis–Menten equation using nonlinear least-squares regression in GraphPad Prism version 9. The reaction velocity (v) at a given substrate concentration ([S]) was calculated using equation 2: […]
(§2) The apparent inhibition constants (Ki,app) for JDB/NA-1-157 and JDB/NA-1-208 were determined under the following conditions: an NCF concentration of 5 × Km, fixed concentrations of LDT or PBP enzymes, and varying concentrations of JDB/NA-1-157 and JDB/NA-1-208. Absorbance changes at 482 nm were monitored over a 30 min period for each inhibitor concentration. The data were linearized using a Dixon plot, which involves plotting the reciprocal of the absorbance change (1/ΔA) against the concentrations of JDB/NA-1-157 or JDB/NA-1-208. Apparent Ki,app values were derived from the intersection points on the Dixon plot and were subsequently corrected for substrate concentration and enzyme affinity using equation 3:
(§3) (3) Ki,app=observed Ki,app/1+[NCF]/Km NCF.

Mab ATCC 19977 [1] = test: MIC testing with drugs pre-incubated in 7H9 broth (effect of drug instability); assay type: cell-based, Mycobacterium abscessus; conditions: for MIC: Mycobacteroides abscessus, ATCC19977; for MIC rise after 24 and 48 h incubation vs nonincubated: drug incubated 24 and 48 h
Protocol: (§4) MICs were determined in duplicate following Clinical Laboratory Standards Institute ([52]) guidelines using Middlebrook 7H9 broth supplemented with 10% (vol/vol) oleic acid-albumin-dextrose-catalase (OADC) and 0.05% (vol/vol) Tween 80, with an inoculum of 5 × 10⁵ CFU/mL. MIC testing of two C5α-substituted carbapenems was conducted both individually and in combination with cephalosporins (cefuroxime and ceftaroline), penicillins (amoxicillin), or BLIs (avibactam or durlobactam + sulbactam). Avibactam, durlobactam, cefuroxime, ceftaroline, and amoxicillin were fixed at concentrations of 4, 1, 2, 4, and 4 mg/L, respectively. Amoxicillin was combined with 4 mg/L avibactam, as it is highly susceptible to hydrolysis by BlaMab ([12], [15], [25]). The MIC was defined as the lowest antibiotic concentration that inhibited visible bacterial growth following 48 h of incubation at 30°C.

Mab ATCC 19977 [2] = test: MIC testing against Mab ATCC 19977, single agent and combinations; assay type: cell-based, Mycobacterium abscessus
Protocol: as §4, with “Amoxicillin was combined with 4 mg/L avibactam, as it is highly susceptible to hydrolysis by BlaMab ([12], [15], [25]).” left out

PonA2 = PonA2 (Mycobacteroides abscessus, UniProt B1MFV7); test: Apparent inhibition constant (nitrocefin, Dixon plot); assay type: biochemical, Mycobacterium abscessus; conditions: Ki,app
PonA2, sequence (B1MFV7 entry or part of it): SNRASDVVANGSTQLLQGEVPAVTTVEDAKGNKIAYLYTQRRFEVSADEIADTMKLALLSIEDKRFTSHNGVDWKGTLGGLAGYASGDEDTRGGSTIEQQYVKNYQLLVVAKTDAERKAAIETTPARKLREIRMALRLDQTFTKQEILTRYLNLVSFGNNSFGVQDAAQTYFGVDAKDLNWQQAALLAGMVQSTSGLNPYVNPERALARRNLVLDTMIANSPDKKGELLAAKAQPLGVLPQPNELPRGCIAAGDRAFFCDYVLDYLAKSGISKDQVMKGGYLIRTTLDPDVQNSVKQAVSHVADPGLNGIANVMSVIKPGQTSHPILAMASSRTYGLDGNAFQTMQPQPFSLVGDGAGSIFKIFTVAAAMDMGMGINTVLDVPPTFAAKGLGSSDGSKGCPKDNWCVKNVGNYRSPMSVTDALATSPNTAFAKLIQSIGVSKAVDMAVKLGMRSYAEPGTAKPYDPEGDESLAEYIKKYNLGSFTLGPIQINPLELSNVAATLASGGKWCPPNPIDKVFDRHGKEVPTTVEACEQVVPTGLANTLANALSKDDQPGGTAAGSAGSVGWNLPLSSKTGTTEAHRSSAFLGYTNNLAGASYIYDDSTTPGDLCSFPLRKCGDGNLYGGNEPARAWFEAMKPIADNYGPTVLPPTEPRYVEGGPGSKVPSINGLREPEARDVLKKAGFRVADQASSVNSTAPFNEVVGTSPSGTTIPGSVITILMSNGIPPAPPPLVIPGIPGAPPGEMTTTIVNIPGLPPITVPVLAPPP
Protocol: as §1, §2, §3

LDT1 = LDT1 (Mycobacteroides abscessus, UniProt B1MDC1); test: as above; assay type: biochemical, Mycobacterium abscessus; conditions: Ki,app
LDT1, sequence (B1MDC1 entry or part of it): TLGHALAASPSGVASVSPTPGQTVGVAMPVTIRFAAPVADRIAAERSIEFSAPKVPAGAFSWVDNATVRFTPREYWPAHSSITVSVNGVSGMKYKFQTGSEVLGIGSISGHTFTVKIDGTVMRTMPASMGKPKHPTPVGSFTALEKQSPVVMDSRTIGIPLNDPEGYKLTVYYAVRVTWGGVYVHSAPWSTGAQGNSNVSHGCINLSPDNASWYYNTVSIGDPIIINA
Protocol: as §1, §2, §3

LDT2 = LDT2 (Mycobacteroides abscessus, UniProt B1MMQ4); test: as above; assay type: biochemical, Mycobacterium abscessus; conditions: Ki,app
LDT2, sequence (B1MMQ4 entry or part of it): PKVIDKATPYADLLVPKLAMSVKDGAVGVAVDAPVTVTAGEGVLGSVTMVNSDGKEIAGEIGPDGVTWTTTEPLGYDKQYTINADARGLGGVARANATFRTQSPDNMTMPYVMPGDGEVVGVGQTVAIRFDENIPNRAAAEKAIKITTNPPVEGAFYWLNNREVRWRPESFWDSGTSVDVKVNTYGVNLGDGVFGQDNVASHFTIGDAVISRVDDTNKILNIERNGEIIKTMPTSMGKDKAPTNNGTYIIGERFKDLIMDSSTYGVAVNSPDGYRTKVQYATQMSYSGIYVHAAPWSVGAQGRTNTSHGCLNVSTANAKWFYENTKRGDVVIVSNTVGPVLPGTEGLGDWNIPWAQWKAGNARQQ
Protocol: as §1, §2, §3

LDT5 = LDT5 (Mycobacteroides abscessus, UniProt B1MHQ4); test: Mass spectrometric analysis of acyl-enzyme adducts; assay type: binding, Mycobacterium abscessus; set-up: key: (.) indicates no detectable binding; conditions: LDT5 (28,220); 1:10 molar ratio, 2 h; accuracy ±5 Da
LDT5, sequence (B1MHQ4 entry or part of it): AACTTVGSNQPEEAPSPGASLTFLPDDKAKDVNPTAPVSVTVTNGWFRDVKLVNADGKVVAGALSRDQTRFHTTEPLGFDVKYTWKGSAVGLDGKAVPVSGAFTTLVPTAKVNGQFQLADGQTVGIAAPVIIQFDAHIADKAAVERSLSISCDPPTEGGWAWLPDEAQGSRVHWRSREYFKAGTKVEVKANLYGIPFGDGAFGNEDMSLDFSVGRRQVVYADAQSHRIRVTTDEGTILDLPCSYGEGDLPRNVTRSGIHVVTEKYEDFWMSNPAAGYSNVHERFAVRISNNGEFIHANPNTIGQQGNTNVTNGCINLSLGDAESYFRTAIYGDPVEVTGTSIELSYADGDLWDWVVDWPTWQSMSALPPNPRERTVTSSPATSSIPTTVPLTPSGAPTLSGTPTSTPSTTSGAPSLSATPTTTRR
Protocol: (§5) Truncated sequences of BlaMab (Δ1–30 blaMab), LDT1–5, DDC, PBP B, PonA2, and PBP-lipo (Δ1–41) were synthesized by Celtek Biosciences (Franklin, TN) and cloned into the pET28(a)+ vector. Purification of LDTs and PBPs was carried out as previously described ([15], [16], [20]). Briefly, clones were transformed into Escherichia coli BL21 (DE3), and protein expression was induced with 0.25 mM isopropyl β-d-1-thiogalactopyranoside. Cell pellets were resuspended in buffer containing 50 mM Tris (pH 8.0), 400 mM sodium chloride, and 1 mM Tris(2-carboxyethyl)phosphine hydrochloride and lysed by sonication. After centrifugation, the supernatant was purified using a His Prep FF column and eluted with 500 mM imidazole.
(§6) The purified proteins were incubated at room temperature with JDB/NA-1-157 and JDB/NA-1-208 at a molar ratio of 1:10 for 2 h. A quadrupole time-of-flight mass spectrometer (Waters Synapt-G2-Si) with electrospray ionization and a Waters Acquity H-Class UPLC system were used to analyze the samples. The liquid chromatography conditions were as follows: a BEH C18 column (1.7 µm, 2.1 × 50 mm) and a mobile phase consisting of 0.1% formic acid in water and 0.1% formic acid in acetonitrile, with a gradient elution from 10% to 90% acetonitrile over 11 min at a flow rate of 0.5 mL/min. The MS settings were optimized with a capillary voltage of 3 kV, a sampling cone voltage of 35 V, and source and desolvation temperatures of 100°C and 500°C, respectively. Gas flow rates were 100 L/h for the cone and 800 L/h for desolvation. The mass accuracy was maintained at ±5 Da.

DDC = test: Mass spectrometric analysis of acyl-enzyme adducts; assay type: binding, Mycobacterium abscessus; set-up: key: (.) indicates no detectable binding; conditions: DDC (29,750); 1:10 molar ratio, 2 h; accuracy ±5 Da
Protocol: as §5, §6

[3] = drug incubated 6 h in 7H9 broth at 30°C
[4] = drug incubated 24 h in 7H9 broth at 30°C
[5] = drug incubated 48 h in 7H9 broth at 30°C
[6] = Mycobacteroides abscessus, ATCC19977, 48 h, alone (single agent), read-out: MIC

PBP B, sequence (B1MP31 entry or part of it): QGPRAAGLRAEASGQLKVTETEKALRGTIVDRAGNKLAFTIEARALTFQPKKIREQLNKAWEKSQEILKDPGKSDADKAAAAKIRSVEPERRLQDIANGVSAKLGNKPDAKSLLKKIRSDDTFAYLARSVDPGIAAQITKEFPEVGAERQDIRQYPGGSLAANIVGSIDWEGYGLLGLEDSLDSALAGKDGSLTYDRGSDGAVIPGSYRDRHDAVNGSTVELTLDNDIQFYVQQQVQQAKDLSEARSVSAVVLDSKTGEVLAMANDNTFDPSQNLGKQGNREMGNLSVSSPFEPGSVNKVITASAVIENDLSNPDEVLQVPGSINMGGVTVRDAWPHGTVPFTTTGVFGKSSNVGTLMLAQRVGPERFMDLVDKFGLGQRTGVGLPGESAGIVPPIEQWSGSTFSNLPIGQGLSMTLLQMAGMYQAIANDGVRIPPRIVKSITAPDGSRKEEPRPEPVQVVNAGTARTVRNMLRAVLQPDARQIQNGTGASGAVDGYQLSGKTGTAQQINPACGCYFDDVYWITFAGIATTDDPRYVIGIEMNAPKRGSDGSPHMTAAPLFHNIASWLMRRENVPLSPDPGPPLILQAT

Compound | Ki (PBP B; Ki,app) [nM] | MIC (Mab ATCC 19977 [1]; [3]) [µg/mL] | MIC (Mab ATCC 19977 [1]; [4]) [µg/mL] | MIC (Mab ATCC 19977 [1]; [5]) [µg/mL] | MIC (Mab ATCC 19977 [1]; no incubation of drug) [µg/mL] | MIC rise after 24 and 48 h incubation vs nonincubated (Mab ATCC 19977 [1]) | MIC (Mab ATCC 19977 [2]; +AMX (4 mg/L) + AVI (4 mg/L)) [µg/mL] | MIC (Mab ATCC 19977 [2]; +AVI (4 mg/L)) [µg/mL] | MIC (Mab ATCC 19977 [2]; +CFT (4 mg/L)) [µg/mL] | MIC (Mab ATCC 19977 [2]; +CXM (2 mg/L)) [µg/mL] | MIC (Mab ATCC 19977 [2]; +DUR (1 mg/L)) [µg/mL] | MIC (Mab ATCC 19977 [2]; [6]) [µg/mL] | fold reduction in MIC on combination (Mab ATCC 19977 [2]; combined with cefuroxime, ceftaroline, or amoxicillin (with avibactam), Table 1, Fig. 3) [fold] | Ki (PonA2) [nM] | Ki (LDT1) [nM] | Ki (LDT2) [nM] | Mass of protein after incubation (mass shift) (LDT5) | Mass of protein after incubation (mass shift) (DDC) | Ki (PBP B; read-out: Ki,app (converted)) [nM]
C[C@@H](O)[C@H]1C(=O)N2C(C(=O)O)=C(S[C@@H]3CN[C@H](C(=O)N(C)C)C3)C[C@]12C [JDB/NA-1-157] | 4900 | 0.25 | 2 | 2 | 0.25 | fourfold | 0.125 | 0.5 | 0.125 | 0.125 | 0.25 | 0.5 | ≤ 4 | 7.82 | 7980 | 130 | 28,219 (.) | 30,134 (+383) Da | –
CC[C@]12CC(S[C@@H]3CN[C@H](C(=O)N(C)C)C3)=C(C(=O)O)N1C(=O)[C@@H]2[C@@H](C)O [JDB/NA-1-208] | – | 16 | 32 | 32 | 16 | twofold | ≤0.0313 | 32 | 4 | 8 | 32 | 32 | – | 352 | 1110 | 166 | 28,617 (+397) Da | 29,750 (.) | 80.5
